We go through 44 compounds from PubChem BioAssay (NCI).

“And” between values parts separate entries of the source, which are not always exact repeats. Identical values can stand only once.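 1) Cells in 96-well plates. 2) Compound, 48 h, 5 concentrations. 3) Linear interpolation between surrounding doses. 4) Unreached endpoint = highest concentration. Here, GI50 denotes the concentration required for 50% inhibition of growth. TGI: concentration producing complete growth inhibition.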

The test system of the experiment is MDA-MB-468 breast. Description: DTP human tumour cell line panel, 48 h.
Take `Oc1ccc(CSc2nnc(-c3ccc(Oc4ccccc4)cc3)n2-c2ccccc2)c2cccnc12`: the GI50 is 180 nM and the TGI came out at 6810 nM.
The matching figures for `N#Cc1c(-c2ccc(Cl)cc2)csc1NC(=O)Nc1cccc(C(F)(F)F)c1`: 2180 nM and 8270 nM.
The like results for `NC1(C(=O)O)CSSC1` were, in that order, 2100 nM and 7890 nM.
The like results for `CC(=O)Nc1ccc2c(c1)CN1C(=O)c3ccccc3C1=N2` were, in that order, more than 100000 nM and more than 100000 nM.
As to `N#CC1=C(N)Oc2c(sc3c(Br)cccc23)C1c1ccc(F)cc1` (stereo not drawn), the GI50 is 333 nM and the TGI was 6410 nM.
The like results for `NC(=O)c1c(NC(=O)c2cccc(C(F)(F)F)c2)sc2c1CCC(=O)C2` were, in that order, 348 nM and 2900 nM.
The matching figures for `Cc1ccc(NCCNCC(O)CO)c2c(=O)c3ccccc3sc12` (stereo not drawn): 1390 nM and 2860 nM.
The like results for `CC(=O)OC1Oc2cc(C)c(C)cc2-c2oc(=O)c(-c3ccccc3)cc21` (stereo not drawn) were, in that order, 796 nM and 43900 nM.
As to `NCCNc1nc2ccccc2c2c(=O)c3cc(F)cc(Cl)c3sc12`, the GI50 was 1730 nM and the concentration for total growth inhibition (TGI) was 3440 nM.
The like results for `CCOC(=O)C(=Cc1c(-c2ccccc2)[nH]c2ccccc12)C(=O)OCC` were, in that order, 3100 nM and 15400 nM.
The matching figures for `COc1ccc2nc3cc(Cl)ccc3c(Nc3ccc(O)c(CN4CCCC4)c3)c2c1`: 1850 nM and 3650 nM.
The matching figures for `O=C1c2cc3c(cc2-c2c1c1cc(F)c(F)cc1c(=O)n2C[C@H](O)CO)OCO3`: 37.9 nM and 206 nM.
As for `Cc1cc(C(=O)Nc2cc(Nc3ncccc3-c3ncnc4nc[nH]c34)ccc2F)cc(C(C)(C)C#N)c1`, the GI50 is 10300 nM and the TGI is more than 100000 nM.
The like results for `COc1ccc(CNC(=O)c2ccc(-c3cc(-c4nnc(C)o4)ccc3C)cc2)cc1` were, in that order, 5140 nM and 21400 nM.
The matching figures for `Cc1ccc(S(=O)c2ccc([N+](=O)[O-])c3nonc23)cc1` (stereo not drawn): 1750 nM and 3650 nM.
The matching figures for `COc1ccc(-c2nn(-c3cccc(Cl)c3)cc2-c2cc(-c3cccs3)no2)cc1`: 2680 nM and 12300 nM.
As to `CC[C@H](C)[C@H](NC(=O)N[C@@H](C)c1ccccc1)C(=O)N(C)[C@H](C[C@@H](OC(C)=O)c1nc(C(=O)N[C@@H](Cc2ccccc2)C[C@H](C)C(=O)OC)cs1)C(C)C`, the GI50 is 3600 nM and the TGI worked out at 24900 nM.
The like results for `COc1ccccc1-c1nccc(COc2ccccc2C[C@@H](Oc2ncnc3sc(-c4ccc(F)cc4)c(-c4ccc(OCCN5CCN(C)CC5)c(Cl)c4C)c23)C(=O)O)n1` were, in that order, less than 10 nM and 12.1 nM.
The matching figures for `COc1cc(/C=C2\C(=O)Nc3ccc(Br)cc32)cc(OC)c1OC`: 3290 nM and more than 100000 nM.
The matching figures for `CCn1c(-c2nonc2N)nc2c(C#CC(C)(C)O)ncc(OC[C@@H]3CCCN3)c21`: 232 nM and 7190 nM.
With `C#CCn1cc(C=C2C(=O)NC(=S)NC2=O)c2cc(Cl)ccc21`, the GI50 is 2060 nM and the TGI stood at 5080 nM.
As for `COc1cccc(C2CC(=O)Nc3cc4c(cc32)CCC4)c1OC` (stereo not drawn), the GI50 is 1830 nM and the TGI was 5450 nM.
The matching figures for `Fc1ccc(-c2cc(-c3cn[nH]c3-c3ccccn3)ccn2)cc1`: more than 25000 nM and more than 25000 nM.
For the compound `CCc1ccc(OCc2ccccc2C(=O)Nc2ccc3nc(C)cc(N)c3c2)cc1`, the GI50 is 1260 nM and the TGI worked out at 2800 nM.
The like results for `O=C1c2c(O)ccc(O)c2C(=O)c2c(NCCNCCO)ccc(NCCNCCO)c21` were, in that order, 83.5 nM and 346 nM.
The like results for `O=c1c2ccccc2c(=O)c2c1sc1c(=O)c3ccc(O)cc3c(=O)c12` were, in that order, 1520 nM and 4000 nM.
The like results for `COc1ccc(-c2conc2-c2ccccc2)cc1` were, in that order, 225 nM and more than 100000 nM.
For the compound `CN1CCN(CCCOc2ccc3ncnc(Nc4ccc(Oc5cccc(F)c5)c(Cl)c4)c3c2)CC1`, the GI50 was 1060 nM and the TGI was found to be 2530 nM.
`Cc1cc(Nc2cc(N3CCN(C)CC3)nc(C#Cc3ccccc3)n2)n[nH]1`: the GI50 is 1670 nM and the TGI was determined as 6530 nM.
The matching figures for `Cc1nc2cc(Nc3nc(Nc4ccc(F)cc4)nc(-c4ccc(Cl)cc4)n3)ccc2n1Cc1ccccc1`: 4940 nM and 88000 nM.
With `Cc1cc([C@H](C)Nc2nccc(N3C(=O)OC[C@@H]3[C@H](C)F)n2)ncc1-c1ccnc(C(F)(F)F)c1`, the GI50 was 9500 nM and the TGI is 79600 nM.
In the case of `Oc1cccc(-c2nc(N3CCOCC3)c3oc4ncccc4c3n2)c1`, the GI50 was 576 nM and 375 nM; the concentration for total growth inhibition (TGI) is 2370 nM and 2150 nM.
Take `Cc1ccc2c(C(C[N+](=O)[O-])c3ccco3)c(-c3ccccc3)[nH]c2c1` (stereo not drawn): the GI50 is 7260 nM and the TGI is 71200 nM.
The like results for `NC(=O)c1cc(-c2ccc3ncnc(N4CCc5cc(F)c(Cl)cc54)c3c2)cnc1N` were, in that order, 397 nM and 2040 nM.
The like results for `O=C(Nc1nc2ccc(F)cc2s1)c1cccnc1Nc1ccc(Cl)cc1Cl` were, in that order, 786 nM and 20200 nM.
For the compound `COc1ccc(-c2nn3ncccc3c2-c2ccnc(Nc3cccc(C(F)(F)F)c3)n2)cc1`, the GI50 is 4620 nM and the TGI is 14100 nM.
Consider `CCCCCCCCCCCCCCCCCCNC(=O)[C@H]1CSC(c2ccc(F)c(OC)c2)N1` (stereo partly drawn), for which the GI50 was 1840 nM and the TGI was more than 50000 nM.
For `O=C(Nc1cccc(Cl)c1)c1cc(Cl)ccc1O`, the GI50 is 1750 nM and the TGI is 7230 nM.
The like results for `CCCCCCCCCCCCNC(=O)[C@H]1CSC(c2ccsc2)N1` (stereo partly drawn) were, in that order, 846 nM and 1630 nM.
The matching figures for `CN(C)CCCNc1c2ccccc2nc2c1oc1ccc(Cl)cc12`: 2760 nM and 11000 nM.
As to `Cc1cc2c(-c3nc4ccccn4c3NC34CC5CC(CC(C5)C3)C4)c(O)c(O)cc2c(O)c1-c1c(C)cc2c(-c3nc4ccccn4c3NC34CC5CC(CC(C5)C3)C4)c(O)c(O)cc2c1O`, the GI50 is 143 nM and the TGI was 1570 nM.
`CC(=O)c1c(Nc2ccc(F)c(F)c2F)[nH]c2c(F)cc(F)cc2c1=O`: the GI50 was 261 nM and the TGI is 789 nM.
The matching figures for `COc1ccc(-c2nn(-c3cccc(Cl)c3)cc2/C=C2\C(=N)N(c3ccccc3)N=C2N)cc1`: 4150 nM and 45800 nM.
The matching figures for `COC12C=C/C(=C(/C(=O)OCc3csc(SC)n3)C(=O)CCCCCCCCC3(OC)C=C/C(=C(/C(=O)OCc4cnc(SC)s4)C(=O)CCCCCCCC1)O3)O2` (stereo not drawn): 3560 nM and 61300 nM.
